Structures are written as SMILES.

The first assay deals with T1, human recombinant PDE9 enzyme (Homo sapiens, UniProt O76083).
T1 construct: made in house; host or cells: SF-9 insect cells
T1 sequence (O76083 whole entry): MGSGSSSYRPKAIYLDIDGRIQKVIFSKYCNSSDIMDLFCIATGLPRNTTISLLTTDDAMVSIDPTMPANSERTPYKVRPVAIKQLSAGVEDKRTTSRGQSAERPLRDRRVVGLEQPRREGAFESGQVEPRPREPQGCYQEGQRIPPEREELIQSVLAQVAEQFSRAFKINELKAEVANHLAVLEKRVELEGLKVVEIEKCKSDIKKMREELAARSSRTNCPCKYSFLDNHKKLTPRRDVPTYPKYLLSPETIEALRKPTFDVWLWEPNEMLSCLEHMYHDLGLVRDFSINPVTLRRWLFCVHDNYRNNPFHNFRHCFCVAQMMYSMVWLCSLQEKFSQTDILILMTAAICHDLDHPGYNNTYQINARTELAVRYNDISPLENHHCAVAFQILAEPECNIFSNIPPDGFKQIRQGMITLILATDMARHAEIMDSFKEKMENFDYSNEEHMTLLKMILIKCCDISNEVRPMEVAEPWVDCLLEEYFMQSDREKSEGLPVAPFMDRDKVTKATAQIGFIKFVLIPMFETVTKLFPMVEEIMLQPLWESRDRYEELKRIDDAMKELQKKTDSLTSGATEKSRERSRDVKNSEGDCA
Nature of the assay: Phosphodiesterase 9 (PDE9) inhibitory activity, Scintillation Proximity (SPA) assay.
Conditions: not given
The class given is biochemical. An outline of the steps: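 Scintillation proximity read-out of [3H]cGMP hydrolysis after 30 min at room temperature, with enzyme addition starting the reaction. The enzyme was human recombinant PDE9 expressed in SF-9 cells, titrated to keep substrate turnover at 20% or less. Compound wells held 2% DMSO final, and background was defined with excess PDE inhibitor.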
(In a scintillation proximity assay essentially only radioactivity close to the scintillant gives light.)
`C[C@@H]1CN(Cc2ccccc2)C[C@H]1c1nc2c(cnn2C2CCOCC2)c(=O)[nH]1` [Example 61, 6-[(3S,4S)-1-benzyl-4-methylpyrrolidin-3-yl]-1-(tetrahydro-2H-pyran-4-yl)-1,5-dihydro-4H-pyrazolo[3,4-d]pyrimidin-4-one]: the IC50 (as a rule, the concentration at which inhibition is half-maximal) came out at 7.35 nM. For `Cc1ncc(CN2C[C@@H](C)[C@H](c3nc4c(cnn4C4CCOCC4)c(=O)[nH]3)C2)cn1` [Example 73, 6-{(3S,4S)-4-methyl-1-[(2-methylpyrimidin-5-yl)methyl]pyrrolidin-3-yl}-1-(tetrahydro-2H-pyran-4-yl)-1,5-dihydro-4H-pyrazolo[3,4-d]pyrimidin-4-one], the 50% inhibitory concentration (IC50) was 6.01 nM.

Staying with this assay, now noted: human recombinant PDE9 from SF-9 cells; 50 nM [3H]cGMP; room temperature, 30 min; Examples 3-114; read-out: G5678A (U): IC50.
Consider `C[C@@H]1CN(Cc2cc3ccccc3nn2)C[C@H]1c1nc2c(cnn2C2CCCC2)c(=O)[nH]1` [Example 51, 6-[(3S,4S)-1-(cinnolin-3-ylmethyl)-4-methylpyrrolidin-3-yl]-1-cyclopentyl-1,5-dihydro-4H-pyrazolo[3,4-d]pyrimidin-4-one], for which the concentration for half-maximal inhibition (IC50) worked out at 8.19 nM. `CC[C@@H]1CN(Cc2ccccc2)C[C@H]1c1nc2c(cnn2C2CCCC2)c(=O)[nH]1` (racemic) [Example 28, 6-[(3,4-trans)-1-benzyl-4-ethylpyrrolidin-3-yl]-1-cyclopentyl-1,5-dihydro-4H-pyrazolo[3,4-d]pyrimidin-4-one]: the half-maximal inhibitory concentration (IC50) worked out at 6.86 nM.

`C[C@@H]1CN(Cc2ccccn2)C[C@H]1c1nc2c(cnn2C2CCCC2)c(=O)[nH]1` (racemic) [Example 26, 1-cyclopentyl-6-[(3,4-trans)-4-methyl-1-(pyridin-2-ylmethyl)pyrrolidin-3-yl]-1,5-dihydro-4H-pyrazolo[3,4-d]pyrimidin-4-one]: the IC50 worked out at 11.4 nM. Still for that read-out and setting: in the case of `Cc1cnc(CN2C[C@@H](C)[C@H](c3nc4c(cnn4C(C)C)c(=O)[nH]3)C2)cn1` [Example 50, 1-isopropyl-6-{(3S,4S)-4-methyl-1-[(5methylpyrazin-2-yl)methyl]pyrrolidin-3-yl}-1,5-dihydro-4H-pyrazolo[3,4-d]pyrimidin-4-one] it was 125 nM; in that of `C[C@@H]1CN(Cc2cncnc2)C[C@H]1c1nc2c(cnn2C2CCCC2)c(=O)[nH]1` (racemic) [Example 14, 1-cyclopentyl-6-[(3,4-trans)-4-methyl-1-(pyrimidin-5-ylmethyl)pyrrolidin-3-yl]-1,5-dihydro-4H-pyrazolo[3,4-d]pyrimidin-4-one], 26 nM; in that of `CC(C)n1ncc2c(=O)[nH]c([C@@H]3CN(Cc4ccnc5cccnc45)C[C@H]3C)nc21` [Example 65, 1-isopropyl-6-[(3S,4S)-4-methyl-1-(1,5-naphthyridin-4-ylmethyl)pyrrolidin-3-yl]-1,5-dihydro-4H-pyrazolo[3,4-d]pyrimidin-4-one], 17.1 nM. Consider `C[C@@H]1CN(Cc2cc(F)cc(F)c2)C[C@H]1c1nc2c(cnn2C2CCOCC2)c(=O)[nH]1` [Example 90, 6-[(3S,4S)-1-(3,5-difluorobenzyl)-4-methylpyrrolidin-3-yl]-1-(tetrahydro-2H-pyran-4-yl)-1,5-dihydro-4H-pyrazolo[3,4-d]pyrimidin-4-one], for which the IC50 is 1.41 nM. As to `CC[C@@H]1CN(Cc2cnc(C)cn2)C[C@H]1c1nc2c(cnn2C2CCOCC2)c(=O)[nH]1` [Example 107, 6-{(3S,4S)-4-ethyl-1-[(5-methylpyrazin-2-yl)methyl]pyrrolidin-3-yl}-1-(tetrahydro-2H-pyran-4-yl)-1,5-dihydro-4H-pyrazolo[3,4-d]pyrimidin-4-one], the IC50 was found to be 4.33 nM. As to `C[C@@H]1CN(Cc2ccnc3ccccc23)C[C@H]1c1nc2c(cnn2C2CCOCC2)c(=O)[nH]1` [Example 86, 6-[(3S,4S)-4-methyl-1-(quinolin-4-ylmethyl)pyrrolidin-3-yl]-1-(tetrahydro-2H-pyran-4-yl)-1,5-dihydro-4H-pyrazolo[3,4-d]pyrimidin-4-one], the concentration for half-maximal inhibition (IC50) worked out at 1.44 nM. Still for that read-out and setting: the value for `C[C@@H]1CN(Cc2cnn3c2CCCC3)C[C@H]1c1nc2c(cnn2C2CCCC2)c(=O)[nH]1` [Example 48, 1-cyclopentyl-6-[(3S,4S)-4-methyl-1-(4,5,6,7-tetrahydropyrazolo[1,5-a]pyridin-3-ylmethyl)pyrrolidin-3-yl]-1,5-dihydro-4H-pyrazolo[3,4-d]pyrimidin-4-one] was 40.7 nM; that for `CC(C)n1ncc2c(=O)[nH]c([C@@H]3CN(Cc4ccc5nccnc5c4)C[C@H]3C)nc21` (racemic) [Example 33, 1-isopropyl-6-[(3,4-trans)-4-methyl-1-(quinoxalin-6-ylmethyl)pyrrolidin-3-yl]-1,5-dihydro-4H-pyrazolo[3,4-d]pyrimidin-4-one] was 6.29 nM.

Regarding `C[C@@H]1CN(Cc2ccnc(N(C)C)n2)C[C@H]1c1nc2c(cnn2C2CCCC2)c(=O)[nH]1` [Example 54, 1-cyclopentyl-6-[(3S,4S)-1-{[2-(dimethylamino)pyrimidin-4-yl]methyl}-4-methylpyrrolidin-3-yl]-1,5-dihydro-4H-pyrazolo[3,4-d]pyrimidin-4-one], the IC50 came to 14.7 nM. Same read-out and setting: the value for `Cc1cc(CN2C[C@@H](C)[C@H](c3nc4c(cnn4C4CCCC4)c(=O)[nH]3)C2)n(C)n1` [Example 47, 1-cyclopentyl-6-{(3S,4S)-1-[(1,3-dimethyl-1H-pyrazolo-5-yl)methyl]-4-methylpyrrolidin-3-yl}-1,5-dihydro-4H-pyrazolo[3,4-d]pyrimidin-4-one] was 5.53 nM.

The assay is the same for the next values; noted with them: human recombinant PDE9 from SF-9 cells; 50 nM [3H]cGMP; room temperature, 30 min; additional compounds Ex. 115-228; read-out: G5678A (U):IC50.
In the case of `Cc1cc(CN2C[C@@H](C)[C@H](c3nc4c(cnn4C4CCCC4)c(=O)[nH]3)C2)no1` (racemic) [Example 145, 1-cyclopentyl-6-{(3,4-trans)-4-methyl-1-[(5-methylisoxazol-3-yl)methyl]pyrrolidin-3-yl}-1,5-dihydro-4H-pyrazolo[3,4-d]pyrimidin-4-one], the IC50 turned out to be 77.4 nM. The same measure, in the same setting: in the case of `C[C@@H]1CN(Cc2cc(F)ccc2F)C[C@H]1c1nc2c(cnn2C2CCCC2)c(=O)[nH]1` (racemic) [Example 156, 1-cyclopentyl-6-[(3,4-trans)-1-(2,5-difluorobenzyl)-4-methylpyrrolidin-3-yl]-1,5-dihydro-4H-pyrazolo[3,4-d]pyrimidin-4-one] it was 40.8 nM. Turning to `C[C@@H]1CN(Cc2cccc(C#N)c2)C[C@H]1c1nc2c(cnn2C2CCCC2)c(=O)[nH]1` (racemic) [Example 155, 3-{[(3,4-trans)-3-(1-cyclopentyl-4-oxo-4,5-dihydro-1H-pyrazolo[3,4-d]pyrimidin-6-yl)-4-methylpyrrolidin-1-yl]methyl}benzonitrile], the IC50 was determined as 27.9 nM. As for `Cc1ccc(CN2C[C@@H](C)[C@H](c3nc4c(cnn4C4CCCC4)c(=O)[nH]3)C2)c(F)c1F` (racemic) [Example 134, 1-cyclopentyl-6-[(3,4-trans)-1-(2,3-difluoro-4-methylbenzyl)-4-methylpyrrolidin-3-yl]-1,5-dihydro-4H-pyrazolo[3,4-d]pyrimidin-4-one], the half-inhibitory concentration (IC50) was 93.5 nM. As for `Cc1cc(C)c(CN2C[C@@H](C)[C@H](c3nc4c(cnn4C4CCCC4)c(=O)[nH]3)C2)c(C)c1` (racemic) [Example 191, 1-cyclopentyl-6-[(3,4-trans)-1-(mesitylmethyl)-4-methylpyrrolidin-3-yl]-1,5-dihydro-4H-pyrazolo[3,4-d]pyrimidin-4-one], the IC50 came to 198 nM.

Take `C[C@@H]1CN(Cc2ccc3c(c2)CC(C)(C)O3)C[C@H]1c1nc2c(cnn2C2CCCC2)c(=O)[nH]1` (racemic) [Example 175, 1-cyclopentyl-6-{(3,4-trans)-1-[(2,2-dimethyl-2,3-dihydro-1-benzofuran-5-yl)methyl]-4-methylpyrrolidin-3-yl}-1,5-dihydro-4H-pyrazolo[3,4-d]pyrimidin-4-one]: the IC50 is 74.8 nM. For the compound `COc1ccc(CN2C[C@@H](C)[C@H](c3nc4c(cnn4C4CCCC4)c(=O)[nH]3)C2)c(F)c1` (racemic) [Example 129, 1-cyclopentyl-6-[(3,4-trans)-1-(2-fluoro-4-methoxybenzyl)-4-methylpyrrolidin-3-yl]-1,5-dihydro-4H-pyrazolo[3,4-d]pyrimidin-4-one], the IC50 was 71.8 nM. For the compound `COc1ccc(OC)c(CN2C[C@@H](C)[C@H](c3nc4c(cnn4C4CCCC4)c(=O)[nH]3)C2)c1` (racemic) [Example 144, 1-cyclopentyl-6-[(3,4-trans)-1-(2,5-dimethoxybenzyl)-4-methylpyrrolidin-3-yl]-1,5-dihydro-4H-pyrazolo[3,4-d]pyrimidin-4-one], the IC50 was found to be 99.6 nM. For `C[C@@H]1CN(CCCc2ccccc2)C[C@H]1c1nc2c(cnn2C2CCCC2)c(=O)[nH]1` (racemic) [Example 201, 1-cyclopentyl-6-[(3,4-trans)-4-methyl-1-(3-phenylpropyl)pyrrolidin-3-yl]-1,5-dihydro-4H-pyrazolo[3,4-d]pyrimidin-4-one], the IC50 was 146 nM. Regarding `C[C@@H]1CN(Cc2cccc(Cl)c2F)C[C@H]1c1nc2c(cnn2C2CCCC2)c(=O)[nH]1` (racemic) [Example 163, 6-[(3,4-trans)-1-(3-chloro-2-fluorobenzyl)-4-methylpyrrolidin-3-yl]-1-cyclopentyl-1,5-dihydro-4H-pyrazolo[3,4-d]pyrimidin-4-one], the IC50 is 53.4 nM.

Take `C[C@@H]1CN(Cc2nc3c(s2)CCCC3)C[C@H]1c1nc2c(cnn2C2CCCC2)c(=O)[nH]1` (racemic) [Example 190, 1-cyclopentyl-6-[(3,4-trans)-4-methyl-1-(4,5,6,7-tetrahydro-1,3-benzothiazol-2-ylmethyl)pyrrolidin-3-yl]-1,5-dihydro-4H-pyrazolo(3,4-d]pyrimidin-4-one]: the IC50 is 55.4 nM.

On to `CCOc1cccc(CN2C[C@@H](C)[C@H](c3nc4c(cnn4C4CCCC4)c(=O)[nH]3)C2)c1` (racemic) [Example 153, 1-cyclopentyl-6-[(3,4-trans)-1-(3-ethoxybenzyl)-4-methylpyrrolidin-3-yl]-1,5-dihydro-4H-pyrazolo[3,4-d]pyrimidin-4-one], for which the IC50 was 54.4 nM.

The values are drawn from patent US7964607B2, “Pyrazolo[3,4-d]pyrimidine compounds” (Pfizer Inc., priority 2007, dated 2011).
